From the NIST ThermoML archive (doi:10.1021/je050052+)

Assay: excess molar enthalpy (molar enthalpy of mixing); xn = mol fraction of the nth substance listed
Conditions: Liquid, Flow calorimetry

COC(=O)OC [dimethyl carbonate] + CC(C)O
Conditions	excess molar enthalpy [kcal/mol]
298.15 K, 1000 kPa, x1 = 0.05	0.1201
298.15 K, 1000 kPa, x1 = 0.1	0.222
298.15 K, 1000 kPa, x1 = 0.15	0.3028
298.15 K, 1000 kPa, x1 = 0.2	0.3695
298.15 K, 1000 kPa, x1 = 0.25	0.4209
298.15 K, 1000 kPa, x1 = 0.3	0.4599
298.15 K, 1000 kPa, x1 = 0.35	0.4899
298.15 K, 1000 kPa, x1 = 0.4	0.5097
298.15 K, 1000 kPa, x1 = 0.45	0.5212
298.15 K, 1000 kPa, x1 = 0.5	0.5264
298.15 K, 1000 kPa, x1 = 0.55	0.5191
298.15 K, 1000 kPa, x1 = 0.6	0.5048
298.15 K, 1000 kPa, x1 = 0.65	0.4805
298.15 K, 1000 kPa, x1 = 0.7	0.4459
298.15 K, 1000 kPa, x1 = 0.75	0.4012
298.15 K, 1000 kPa, x1 = 0.8	0.3425
298.15 K, 1000 kPa, x1 = 0.95	0.1068
313.15 K, 100 kPa, x1 = 0.0483	0.1117
313.15 K, 100 kPa, x1 = 0.0998	0.2227
313.15 K, 100 kPa, x1 = 0.1507	0.3146
313.15 K, 100 kPa, x1 = 0.2011	0.388
313.15 K, 100 kPa, x1 = 0.2509	0.4473
313.15 K, 100 kPa, x1 = 0.3002	0.4924
313.15 K, 100 kPa, x1 = 0.3489	0.5277
313.15 K, 100 kPa, x1 = 0.4005	0.5535
313.15 K, 100 kPa, x1 = 0.4515	0.5679
313.15 K, 100 kPa, x1 = 0.4986	0.5718
313.15 K, 100 kPa, x1 = 0.5485	0.5651
313.15 K, 100 kPa, x1 = 0.6011	0.5502
313.15 K, 100 kPa, x1 = 0.6498	0.5244
313.15 K, 100 kPa, x1 = 0.7012	0.4887
313.15 K, 100 kPa, x1 = 0.7488	0.4419
313.15 K, 100 kPa, x1 = 0.8486	0.3137
313.15 K, 100 kPa, x1 = 0.9007	0.2235
313.15 K, 100 kPa, x1 = 0.9492	0.1156
313.15 K, 1000 kPa, x1 = 0.0483	0.1108
313.15 K, 1000 kPa, x1 = 0.0998	0.2231
313.15 K, 1000 kPa, x1 = 0.1507	0.3136
313.15 K, 1000 kPa, x1 = 0.201	0.3871
313.15 K, 1000 kPa, x1 = 0.2508	0.4465
313.15 K, 1000 kPa, x1 = 0.3	0.4932
313.15 K, 1000 kPa, x1 = 0.3487	0.5283
313.15 K, 1000 kPa, x1 = 0.4003	0.5534
313.15 K, 1000 kPa, x1 = 0.4513	0.5642
313.15 K, 1000 kPa, x1 = 0.4984	0.5678
313.15 K, 1000 kPa, x1 = 0.5516	0.5622
313.15 K, 1000 kPa, x1 = 0.6009	0.5476
313.15 K, 1000 kPa, x1 = 0.6497	0.5221
313.15 K, 1000 kPa, x1 = 0.7011	0.486
313.15 K, 1000 kPa, x1 = 0.7487	0.4405
313.15 K, 1000 kPa, x1 = 0.8486	0.3109
313.15 K, 1000 kPa, x1 = 0.9007	0.2209
313.15 K, 1000 kPa, x1 = 0.9491	0.1173
313.15 K, 10000 kPa, x1 = 0.0517	0.1095
313.15 K, 10000 kPa, x1 = 0.0992	0.212
313.15 K, 10000 kPa, x1 = 0.1499	0.303
313.15 K, 10000 kPa, x1 = 0.2	0.3768
313.15 K, 10000 kPa, x1 = 0.2497	0.4355
313.15 K, 10000 kPa, x1 = 0.2988	0.4813
313.15 K, 10000 kPa, x1 = 0.3508	0.5177
313.15 K, 10000 kPa, x1 = 0.3989	0.5407
313.15 K, 10000 kPa, x1 = 0.4499	0.5557
313.15 K, 10000 kPa, x1 = 0.5003	0.5598
313.15 K, 10000 kPa, x1 = 0.5501	0.5537
313.15 K, 10000 kPa, x1 = 0.5995	0.5393
313.15 K, 10000 kPa, x1 = 0.6515	0.5131
313.15 K, 10000 kPa, x1 = 0.6998	0.48
313.15 K, 10000 kPa, x1 = 0.7507	0.4325
313.15 K, 10000 kPa, x1 = 0.8011	0.3729
313.15 K, 10000 kPa, x1 = 0.8509	0.3054
313.15 K, 10000 kPa, x1 = 0.9001	0.2228
313.15 K, 10000 kPa, x1 = 0.9488	0.1259
328.15 K, 1000 kPa, x1 = 0.05	0.1293
328.15 K, 1000 kPa, x1 = 0.1	0.2339
328.15 K, 1000 kPa, x1 = 0.15	0.3279
328.15 K, 1000 kPa, x1 = 0.2	0.4052
328.15 K, 1000 kPa, x1 = 0.25	0.4674
328.15 K, 1000 kPa, x1 = 0.3	0.5156
328.15 K, 1000 kPa, x1 = 0.35	0.5557
328.15 K, 1000 kPa, x1 = 0.4	0.5822
328.15 K, 1000 kPa, x1 = 0.45	0.5962
328.15 K, 1000 kPa, x1 = 0.5	0.6034
328.15 K, 1000 kPa, x1 = 0.55	0.5992
328.15 K, 1000 kPa, x1 = 0.6	0.5851
328.15 K, 1000 kPa, x1 = 0.65	0.5559
328.15 K, 1000 kPa, x1 = 0.7	0.5128
328.15 K, 1000 kPa, x1 = 0.75	0.4679
328.15 K, 1000 kPa, x1 = 0.8	0.4034
328.15 K, 1000 kPa, x1 = 0.85	0.3257
328.15 K, 1000 kPa, x1 = 0.9	0.2299
328.15 K, 1000 kPa, x1 = 0.95	0.1163

COC(=O)OC [dimethyl carbonate] + CCCO
Conditions	excess molar enthalpy [kcal/mol]
298.15 K, 1000 kPa, x1 = 0.05	0.108
298.15 K, 1000 kPa, x1 = 0.1	0.2025
298.15 K, 1000 kPa, x1 = 0.15	0.2782
298.15 K, 1000 kPa, x1 = 0.2	0.3401
298.15 K, 1000 kPa, x1 = 0.25	0.3833
298.15 K, 1000 kPa, x1 = 0.3	0.4194
298.15 K, 1000 kPa, x1 = 0.35	0.447
298.15 K, 1000 kPa, x1 = 0.4	0.4608
298.15 K, 1000 kPa, x1 = 0.45	0.4692
298.15 K, 1000 kPa, x1 = 0.5	0.4679
298.15 K, 1000 kPa, x1 = 0.55	0.4588
298.15 K, 1000 kPa, x1 = 0.6	0.4437
298.15 K, 1000 kPa, x1 = 0.65	0.4199
298.15 K, 1000 kPa, x1 = 0.7	0.3883
298.15 K, 1000 kPa, x1 = 0.75	0.3492
298.15 K, 1000 kPa, x1 = 0.8	0.2996
298.15 K, 1000 kPa, x1 = 0.85	0.2396
298.15 K, 1000 kPa, x1 = 0.9515	0.0831
313.15 K, 1000 kPa, x1 = 0.0485	0.1015
313.15 K, 1000 kPa, x1 = 0.1002	0.2101
313.15 K, 1000 kPa, x1 = 0.1512	0.2976
313.15 K, 1000 kPa, x1 = 0.2017	0.3682
313.15 K, 1000 kPa, x1 = 0.2516	0.4232
313.15 K, 1000 kPa, x1 = 0.3009	0.4634
313.15 K, 1000 kPa, x1 = 0.3497	0.4921
313.15 K, 1000 kPa, x1 = 0.4014	0.5134
313.15 K, 1000 kPa, x1 = 0.449	0.5231
313.15 K, 1000 kPa, x1 = 0.4995	0.5234
313.15 K, 1000 kPa, x1 = 0.5494	0.5136
313.15 K, 1000 kPa, x1 = 0.5987	0.4971
313.15 K, 1000 kPa, x1 = 0.6506	0.4702
313.15 K, 1000 kPa, x1 = 0.6988	0.4383
313.15 K, 1000 kPa, x1 = 0.7495	0.3945
313.15 K, 1000 kPa, x1 = 0.8491	0.2714
313.15 K, 1000 kPa, x1 = 0.901	0.1899
313.15 K, 1000 kPa, x1 = 0.9493	0.0957
313.15 K, 10000 kPa, x1 = 0.0482	0.1172
313.15 K, 10000 kPa, x1 = 0.0996	0.2233
313.15 K, 10000 kPa, x1 = 0.1504	0.3101
313.15 K, 10000 kPa, x1 = 0.2007	0.3795
313.15 K, 10000 kPa, x1 = 0.2505	0.4328
313.15 K, 10000 kPa, x1 = 0.2997	0.4731
313.15 K, 10000 kPa, x1 = 0.3483	0.502
313.15 K, 10000 kPa, x1 = 0.3999	0.5218
313.15 K, 10000 kPa, x1 = 0.4509	0.5315
313.15 K, 10000 kPa, x1 = 0.5013	0.5316
313.15 K, 10000 kPa, x1 = 0.5512	0.5228
313.15 K, 10000 kPa, x1 = 0.6005	0.5047
313.15 K, 10000 kPa, x1 = 0.6493	0.4798
313.15 K, 10000 kPa, x1 = 0.7007	0.4413
313.15 K, 10000 kPa, x1 = 0.7515	0.3942
313.15 K, 10000 kPa, x1 = 0.8514	0.2719
313.15 K, 10000 kPa, x1 = 0.9005	0.1934
313.15 K, 10000 kPa, x1 = 0.949	0.09892
328.15 K, 1000 kPa, x1 = 0.05	0.1178
328.15 K, 1000 kPa, x1 = 0.1	0.2285
328.15 K, 1000 kPa, x1 = 0.15	0.3207
328.15 K, 1000 kPa, x1 = 0.2	0.3941
328.15 K, 1000 kPa, x1 = 0.25	0.4542
328.15 K, 1000 kPa, x1 = 0.3	0.4986
328.15 K, 1000 kPa, x1 = 0.35	0.5304
328.15 K, 1000 kPa, x1 = 0.4	0.553
328.15 K, 1000 kPa, x1 = 0.45	0.5666
328.15 K, 1000 kPa, x1 = 0.5	0.5671
328.15 K, 1000 kPa, x1 = 0.55	0.5597
328.15 K, 1000 kPa, x1 = 0.6	0.5432
328.15 K, 1000 kPa, x1 = 0.65	0.5174
328.15 K, 1000 kPa, x1 = 0.7	0.4791
328.15 K, 1000 kPa, x1 = 0.75	0.4296
328.15 K, 1000 kPa, x1 = 0.85	0.2956
328.15 K, 1000 kPa, x1 = 0.9	0.2109
328.15 K, 1000 kPa, x1 = 0.95	0.1065
